Read-outs that look alike come from different tables or passages of the source. Square brackets hold non-standard residues; d marks the D form. Ends that are not written are not given here. Peptide text beside a SMILES is read from it. * marks the point of attachment. Sta = CC(C)C[C@H](N)[C@@H](O)CC(=O)O; Isovaleryl = CC(C)CC(=O)*
Experiments:
HLA-A*0201 [1] = biological target: HLA-A*0201 (Homo sapiens, UniProt P04439, /I218V/L300P/L318F/N151K/N90K/P208A/P217A/Q86G/Q94H/R138H/R169H/T345S); experiment: biochemical; type: binding; details: HLA-A*0201-transfected TAP-deficient RMA-S cells, peptide 2 h 26°C then 2 h 37°C, concentration range 0.001-100 μM, mAb PA2.1, flow cytometry, mean ± SD of four independent experiments, read-out: HLA-A*0201 Affinity values, EC50
[2] = test system: CHIKV 6K51-59 epitope presentation by rVACV-CHIKV-infected HLA-A*0201+ DC; experiment: cells; type: cell-based, HLA-A*0201-transgenic mice
[3] = test system: VACV D12I251-259 epitope presentation by infected HLA-A*0201+ DC; type: cell-based, HLA-A*0201-transgenic mice; details: for percentage of inhibition of recognition by VACV D12I251-259-specific CD8+ T cells: SD
HLA-A*0201 [4] = biological target: HLA-A*0201 (Homo sapiens, UniProt P04439, D140Y/D185E/D98H/E176V/E277Q/G131W/G231S/I119V/I121R/I166T/I218V/L300P/L318F/N151K/N90K/P208A/P217A/Q86G/Q94H/R138H/R169H/T345S); experiment: biochemical; type: binding; details: HLA-A*0201-transfected TAP-deficient RMA-S cells; for binding to HLA-A*0201 (HLA-peptide surface complexes), in words: MHC-peptide complex stability assay
[5] = test system: CHIKV 6K peptide-specific CD8+ T cell lines; type: cell-based, HLA-A*0201-transgenic mice; details: ICS
[6] = Mus musculus, T-cell, 5 h, read-out: percentage of inhibition of recognition by CHIKV 6K51-59-specific CD8+ T cells, SD

Molecule	EC50 (HLA-A*0201 [1]; SD) [µM]	effect on recognition by CHIKV 6K51-59-specific CD8+ T cell line, in words [2]	other results
CC(C)C[C@H](NC(=O)[C@H](CC(C)C)NC(=O)[C@H](CCCNC(=N)N)NC(=O)[C@H](CC(C)C)NC(=O)[C@H](CS)NC(=O)[C@H](CC(N)=O)NC(=O)[C@H](CS)NC(=O)[C@H](CC(C)C)NC(=O)[C@@H](N)C(C)C)C(=O)O [6K 31–39] (H-VLCNCLRLL-OH)	5 ± 3	–	–
CC(C)C[C@H](NC(=O)[C@@H](NC(=O)[C@H](CCCCN)NC(=O)[C@H](CS)NC(=O)[C@H](CS)NC(=O)[C@H](CS)NC(=O)[C@@H]1CCCN1C(=O)[C@H](CC(C)C)NC(=O)[C@H](CC(C)C)NC(=O)[C@@H](N)CCCNC(=N)N)[C@@H](C)O)C(=O)O [6K 37–46] (H-RLLPCCCKTL-OH)	8 ± 6	–	–
CC(C)C[C@H](NC(=O)[C@@H](O)[C@H](N)Cc1ccccc1)C(=O)O [BEST, Bestatin]	–	unaffected	–
C[C@H]1CCC/C=C/[C@@H]2C[C@H](O)C[C@H]2[C@H](O)/C=C/C(=O)O1 [BFA, Brefeldin]	–	completely inhibited	effect on VACV D12I251-259 epitope presentation, in words [3]: complete inhibition
CCN(CC)CCCC(C)Nc1ccnc2cc(Cl)ccc12 (stereo not drawn) [CQ, Chloroquine]	–	–	inhibition at 50 µM [2, 6]: 69 ± 19%
CC(C)C[C@H](NC(=O)[C@H]1O[C@@H]1C(=O)O)C(=O)NCCCCN=C(N)N [E64]	–	None of these inhibitors affected	–
O=C(O)CN(CCN(CC(=O)O)CC(=O)O)CC(=O)O [EDTA, Ethylenediaminetetraacetic acid]	–	unaffected	–
CC(=O)N[C@@H](CSC(=O)[C@]1([C@@H](O)C(C)C)NC(=O)[C@H](C)[C@@H]1O)C(=O)O [LC, Lactacystin]	–	–	inhibition at 10 µM [2, 6]: 83 ± 3%; effect on VACV D12I251-259 epitope presentation, in words [3]: lesser effect
CC(=O)N[C@@H](CC(C)C)C(=O)N[C@@H](CC(C)C)C(=O)N[C@H](C=O)CCCNC(=N)N [LEU, Leupeptin]	–	None of these inhibitors affected	–
CC(C)C[C@H](N)CS [Leu-SH, Leucinthiol]	–	–	percentage of inhibition of recognition by CHIKV 6K51-59-specific CD8+ T cells ([2]; SD): 91 ± 13%; effect on VACV D12I251-259 epitope presentation, in words [3]: lesser effect
CC(C)CC(=O)N[C@H](C(=O)N[C@H](C(=O)N[C@@H](CC(C)C)[C@@H](O)CC(=O)N[C@@H](C)C(=O)N[C@@H](CC(C)C)[C@@H](O)CC(=O)O)C(C)C)C(C)C [PEPST, Pepstatin] (Isovaleryl-VV[Sta]A[Sta]-OH)	–	None of these inhibitors affected	–
c1cnc2c(c1)ccc1cccnc12 [PHE, 1–10 Phenanthroline]	–	None of these inhibitors affected	–
O=S(=O)(F)Cc1ccccc1 [PMSF, Phenylmethane sulfonylfluoride]	–	None of these inhibitors affected	–
COc1ccc(C[C@H](N)C(=O)N[C@H]2[C@@H](O)[C@H](n3cnc4c(N(C)C)ncnc43)O[C@@H]2CO)cc1 [PURO, Puromycin]	–	–	inhibition at 0.5 µg/mL [2, 6]: 47 ± 21%; percentage of inhibition of recognition by VACV D12I251-259-specific CD8+ T cells [3]: 4 ± 6%
ALIPLAALI [6K 22–30]	33 ± 28	–	–
ALIPLAALIV [6K 22–31]	21 ± 20	–	–
ALIVLCNCL [6K 28–36]	–	–	binding to HLA-A*0201 (HLA-peptide surface complexes), in words (HLA-A*0201 [4]): not detected; HLA-A*0201 Affinity values, EC50 (HLA-A*0201 [4]; peptide 2 h 26°C then 2 h 37°C, concentration range 0.001-100 μM, mAb PA2.1, flow cytometry, mean ± SD of four independent experiments): No binding
Decanoyl-Arg-Val-Lys-Arg-chloromethylketone [dec-RVKR]	–	–	percentage of inhibition of recognition by CHIKV 6K51-59-specific CD8+ T cells ([2]; SD): 43 ± 20%; percentage of inhibition of recognition by VACV D12I251-259-specific CD8+ T cells [3]: 4 ± 6%
ILDRIITNA [A10L 688-696]	3 ± 3	–	–
QALIPLAAL [6K 21–29]	–	–	EC50 (HLA-A*0201 [1]): > 200 µM; binding to HLA-A*0201 (HLA-peptide surface complexes), in words (HLA-A*0201 [4]): residual; specific recognition of peptide-pulsed DC by CTL line, in words [5]: no specific recognition
TLAFLAVMSV [6K 45–54]	1 ± 0.5	–	–
VMSVGAHTV [6K 51–59]	9 ± 1	–	–

From article PMC5679651, “Complex antigen presentation pathway for an HLA-A*0201-restricted epitope from Chikungunya 6K protein” (PLoS Neglected Tropical Diseases, 2017)
